Test results: US11730712B2, “Functionalized long-chain hydrocarbon mono- and di-carboxylic acids and derivatives thereof, and their use for the prevention or treatment of disease” (ESPERVITA THERAPEUTICS, INC., priority 2021, dated 2023)
Several values for one entry are separate records, joined by “and”; a condition that tells them apart may be missing. Equal entries are not always repeated.

Tests used:
Assay in all cases: Kinase assay, wild type kinases
Assay type in all cases: biochemical
DDR2 = target: T1, DDR2 (Homo sapiens, UniProt Q16832); conditions: compound 10 μM, 10 μM ATP, duplicate (Data 1, Data 2), >100 activation, <100 inhibition; for remaining activity at 10 µM: read-out: % Enzyme Activity (relative to DMSO controls), DDR2
T1 sequence (Q16832 22-855): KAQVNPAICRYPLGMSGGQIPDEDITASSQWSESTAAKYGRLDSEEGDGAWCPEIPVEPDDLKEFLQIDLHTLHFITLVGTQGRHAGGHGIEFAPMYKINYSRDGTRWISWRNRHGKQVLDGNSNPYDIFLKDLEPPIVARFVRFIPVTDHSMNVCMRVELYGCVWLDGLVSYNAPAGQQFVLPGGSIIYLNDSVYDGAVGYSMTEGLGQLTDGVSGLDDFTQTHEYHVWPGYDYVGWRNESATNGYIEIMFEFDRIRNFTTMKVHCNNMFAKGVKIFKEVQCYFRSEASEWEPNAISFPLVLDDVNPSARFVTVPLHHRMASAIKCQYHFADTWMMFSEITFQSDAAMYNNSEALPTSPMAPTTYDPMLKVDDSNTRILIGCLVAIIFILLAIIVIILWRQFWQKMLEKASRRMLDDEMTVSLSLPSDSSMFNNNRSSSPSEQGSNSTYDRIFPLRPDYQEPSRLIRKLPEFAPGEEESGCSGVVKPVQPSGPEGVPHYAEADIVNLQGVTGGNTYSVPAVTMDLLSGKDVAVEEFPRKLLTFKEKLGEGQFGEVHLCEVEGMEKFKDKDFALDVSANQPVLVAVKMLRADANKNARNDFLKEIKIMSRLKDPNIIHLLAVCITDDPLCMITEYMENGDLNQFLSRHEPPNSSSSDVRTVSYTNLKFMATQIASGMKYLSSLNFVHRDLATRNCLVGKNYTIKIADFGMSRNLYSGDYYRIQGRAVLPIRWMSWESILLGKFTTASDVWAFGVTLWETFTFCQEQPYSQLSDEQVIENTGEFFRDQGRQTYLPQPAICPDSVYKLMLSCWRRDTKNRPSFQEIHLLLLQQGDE

CAMK2g = CAMK2g (Homo sapiens, UniProt Q13555); conditions: compound 10 μM, 10 μM ATP, duplicate (Data 1, Data 2), >100 activation, <100 inhibition; for remaining activity at 10 µM: read-out: % Enzyme Activity (relative to DMSO controls), CAMK2g
MELK = MELK (Homo sapiens, UniProt Q14680); conditions: compound 10 μM, 10 μM ATP, duplicate (Data 1, Data 2), >100 activation, <100 inhibition; for remaining activity at 10 µM: read-out: % Enzyme Activity (relative to DMSO controls), MELK
Sequence of MELK (Q14680 whole entry, species assumed): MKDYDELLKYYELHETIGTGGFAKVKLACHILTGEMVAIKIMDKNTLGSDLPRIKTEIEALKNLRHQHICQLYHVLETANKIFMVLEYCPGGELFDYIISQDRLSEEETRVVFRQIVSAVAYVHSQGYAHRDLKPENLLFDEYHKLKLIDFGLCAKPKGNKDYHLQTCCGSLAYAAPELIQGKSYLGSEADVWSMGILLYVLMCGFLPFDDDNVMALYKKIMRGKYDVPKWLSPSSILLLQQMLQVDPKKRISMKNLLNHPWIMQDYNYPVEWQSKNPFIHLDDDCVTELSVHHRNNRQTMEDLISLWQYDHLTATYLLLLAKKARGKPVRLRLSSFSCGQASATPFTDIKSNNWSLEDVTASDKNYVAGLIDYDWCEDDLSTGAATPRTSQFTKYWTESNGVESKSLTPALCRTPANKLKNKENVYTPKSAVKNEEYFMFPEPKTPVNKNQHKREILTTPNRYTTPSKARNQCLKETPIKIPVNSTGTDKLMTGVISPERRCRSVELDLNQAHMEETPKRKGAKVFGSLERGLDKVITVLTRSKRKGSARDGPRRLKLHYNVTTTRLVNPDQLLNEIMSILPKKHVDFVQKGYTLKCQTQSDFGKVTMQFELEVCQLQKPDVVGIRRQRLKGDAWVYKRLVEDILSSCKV

BMX/ETK = target: T2, BMX/ETK (Homo sapiens, UniProt P51813); conditions: compound 10 μM, 10 μM ATP, duplicate (Data 1, Data 2), >100 activation, <100 inhibition; for remaining activity at 10 µM: read-out: % Enzyme Activity (relative to DMSO controls), BMX/ETK
T2 sequence (P51813 1-675): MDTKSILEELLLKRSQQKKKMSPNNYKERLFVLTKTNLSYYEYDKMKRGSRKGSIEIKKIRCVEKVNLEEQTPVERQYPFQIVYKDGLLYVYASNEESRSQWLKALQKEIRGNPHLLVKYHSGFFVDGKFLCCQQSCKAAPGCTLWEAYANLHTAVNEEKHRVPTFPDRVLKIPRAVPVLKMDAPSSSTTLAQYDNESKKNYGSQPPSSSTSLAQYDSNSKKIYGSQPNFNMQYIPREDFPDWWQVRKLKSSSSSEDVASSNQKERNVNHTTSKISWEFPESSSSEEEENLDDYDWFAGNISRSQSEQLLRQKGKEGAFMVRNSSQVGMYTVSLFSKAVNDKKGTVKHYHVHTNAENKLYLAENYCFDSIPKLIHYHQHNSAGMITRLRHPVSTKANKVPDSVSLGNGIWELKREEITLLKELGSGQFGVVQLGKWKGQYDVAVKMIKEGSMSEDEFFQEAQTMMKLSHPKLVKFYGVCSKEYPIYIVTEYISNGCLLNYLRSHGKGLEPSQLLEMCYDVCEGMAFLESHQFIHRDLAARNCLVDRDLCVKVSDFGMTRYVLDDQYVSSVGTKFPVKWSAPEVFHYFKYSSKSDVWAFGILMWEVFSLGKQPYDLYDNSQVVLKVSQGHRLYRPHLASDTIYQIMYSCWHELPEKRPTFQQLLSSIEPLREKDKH

Row | SMILES | remaining activity at 10 µM (DDR2) [%] | remaining activity at 10 µM (CAMK2g) [%] | remaining activity at 10 µM (MELK) [%] | remaining activity at 10 µM (BMX/ETK) [%] | % Enzyme Activity (relative to DMSO controls), DDR2 (DDR2) | % Enzyme Activity (relative to DMSO controls), CAMK2g (CAMK2g) | % Enzyme Activity (relative to DMSO controls), MELK (MELK) | % Enzyme Activity (relative to DMSO controls), BMX/ETK (BMX/ETK)
1 | CC(C)(CCCCc1ccc(CCCCC(C)(C)C(=O)O)cc1)C(=O)O [Compound I-1, 6-[4-(5-carboxy-5-methylhexyl)-phenyl]-2,2-dimethylhexanoic acid] | 79.8 | 60.6 | 110 | 55 |  |  |  | 
2 | CC(C)(CCCCc1ccc(CCCCC(C)(C)C(=O)SCCNC(=O)CCNC(=O)[C@H](O)C(C)(C)COP(=O)(O)OP(=O)(O)OC[C@H]2O[C@@H](n3cnc4c(N)ncnc43)[C@H](O)[C@@H]2OP(=O)(O)O)cc1)C(=O)O [Compound I-1-CoA, 6-[4-(5-carboxy-5-methylhexyl)-phenyl]-2,2-dimethylhexanoic acid Coenzyme A ester] |  |  |  |  | 88.28% and 79.94% | 53.91% and 53.05% | 23.02% and 21.99% | 49.55% and 47.76%
3 | CC(C)(CCCCc1cccc(CCCCC(C)(C)C(=O)O)c1)C(=O)O [Compound I-32, 6-[3-(5-carboxy-5-methylhexyl)-phenyl]-2,2-dimethylhexanoic acid] | 91.4 | 73.2 | 114 | 53.7 |  |  |  | 
4 | CC(C)(CCCCc1cccc(CCCCC(C)(C)C(=O)SCCNC(=O)CCNC(=O)[C@H](O)C(C)(C)COP(=O)(O)OP(=O)(O)OC[C@H]2O[C@@H](n3cnc4c(N)ncnc43)[C@H](O)[C@@H]2OP(=O)(O)O)c1)C(=O)O [Compound I-32-CoA, 6-[3-(5-Carboxy-5-methylhexyl)-phenyl]-2,2-dimethylhexanoic acid Coenzyme A Ester] |  |  |  |  | 29.98% and 25.40% | 35.05% and 34.20% | 28.56% and 27.35% | 49.54% and 43.87%
